Test results as given in patent publication US20120134977A1 (YEDA RESEARCH AND DEVELOPMENT CO. LTD., priority 2009, published 2012).

Tests used:
[1] = target: human serum albumin (HSA) (Homo sapiens, UniProt P02768); assay: Isothermal scanning calorimetry (ITC) of ligand association with HSA; format: binding; conditions: for Kd: ligand 400 μM injected into HSA 10 μM, PBS pH 7.4, 23° C., read-out: Association-constant to HSA K (Ka) (converted)
Protocol: The data was obtained for 15 automatic injections each of 2.7 The total duration of the experiments was 45 min (2A). […] Sample cell contained HSA at a concentration of 10 μM. Both components were dissolved in PBS-buffer pH=7.4. The experiment was conducted at 23° C.
(iv) Isothermal scanning calorimetry measurements were performed with iTC200 microcalorimeter (MicroCal LLC, Nothampton Mass., USA), according to the manufacturer's instructions.

HSA = HSA (Homo sapiens, UniProt P02768); conditions: immobilized HSA binding strategy, Markusen et al., 1996; cited from earlier work
Sequence of HSA (P02768 25-609): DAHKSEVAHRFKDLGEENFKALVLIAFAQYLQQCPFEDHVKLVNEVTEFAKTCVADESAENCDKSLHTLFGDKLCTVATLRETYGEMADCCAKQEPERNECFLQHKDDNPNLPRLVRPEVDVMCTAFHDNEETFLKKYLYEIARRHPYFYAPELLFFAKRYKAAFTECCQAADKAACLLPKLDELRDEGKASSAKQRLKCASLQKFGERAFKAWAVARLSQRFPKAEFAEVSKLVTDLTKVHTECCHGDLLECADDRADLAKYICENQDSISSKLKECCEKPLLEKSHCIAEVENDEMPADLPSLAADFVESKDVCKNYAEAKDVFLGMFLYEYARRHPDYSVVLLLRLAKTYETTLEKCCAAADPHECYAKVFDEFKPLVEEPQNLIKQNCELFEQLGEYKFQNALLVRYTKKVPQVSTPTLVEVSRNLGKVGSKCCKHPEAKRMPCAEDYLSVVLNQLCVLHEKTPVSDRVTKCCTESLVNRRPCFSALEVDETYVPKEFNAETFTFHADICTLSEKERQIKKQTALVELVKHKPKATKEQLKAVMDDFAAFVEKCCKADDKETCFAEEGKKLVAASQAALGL

[2] = background statement; cited from earlier work
E. Coli = conditions: previously disclosed (Shechter et al., 2002; Marcus et al., 2008); read-out: IC50, inhibition of E. Coli replication; cited from earlier work
CD1-mice = conditions: at any dosage, previously described; cited from earlier work

Sequence of human serum albumin (HSA) (P02768 25-609): as above

## O=C(O)CNC(=O)OCC1c2cc(NC(=O)CCN3C(=O)C=CC3=O)ccc2-c2ccc(S(=O)(=O)O)cc21 (stereo not shown) [Glycine-FMS-MAL, 2-(((2-(3-(2,5-dioxo-2,5-dihydro-1H-pyrrol-1-yl)propanamido)-7-sulfo-9H-fluoren-9-yl)methoxy)carbonylamino)acetic acid]
[1]
  Kd: 7.14 µM

## N^εB29-tetradecanoyl des(B30) insulin [insulin-detemir]
[1]; PBS pH 7.4
  N (binding sites, OneSites model): 0.693±0.0430 sites
  ΔH of binding to HSA: -4.575 ± 0.4067 kcal/mol
  ΔS of binding to HSA: 6.79 (cal/mol)/deg
HSA
  Ka, binding affinity to HSA: 2.4±0.7×10^5 M^−1
[2]
  duration of action: up to 24 hours

## Gentamicin
E. Coli
  IC50: 2.1 ± 0.2 µM

## O=C(O)CCCCCCCCCCCCCCCSC1CC(=O)NC1=O (stereo not shown) [MAL-S—(CH2)15—COOH, 16-(2,5-dioxopyrrolidin-3-ylthio)hexadecanoic acid]
[1]
  Kd: 6.45 µM

## exendin-4
CD1-mice
  threshold decrease of circulating blood glucose level: 27±3%

## O=C(O)CCCCCCCCCCSC1CC(=O)NC1=O (stereo not shown)
[1]
  Kd: 7.69 µM
